Measured values: article PMC9040621 (2021)

System: d(CCAATTGG)2 (DNA, duplex) CCAATTGG
Experiment: differential scanning calorimetry
Settings: Na+ (sodium phosphate buffer); 100 μM DNA, compound/DNA = 1; free Tm 41.73 °C

| SMILES | ΔTm [°C] |
| --- | --- |
| O=c1cc(-c2ccccc2)oc2cc(O)cc(O)c12 | 12.14 |
| O=c1cc(-c2ccccc2)oc2ccccc12 | -2.07 |
| O=c1cc(-c2ccccc2)oc2cc(O)c(O)c(O)c12 | 13.88 |
